# Laboratory results taken from PubChem BioAssay (NCI).
#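 Protocol summary: plate cells (96-well), add compound at 5 concentrations, incubate 48 h, interpolate endpoints linearly. The concentration for full growth arrest is given as TGI.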
# Tests used:
# Test in all cases: DTP human tumour cell line panel, 48 h
# HCC-2998 colon = system: HCC-2998 colon
# RXF 393 renal = system: RXF 393 renal
# SN12C renal = system: SN12C renal
# OVCAR-8 ovarian = system: OVCAR-8 ovarian
# NCI-H460 lung = system: NCI-H460 lung
# EKVX NSCLC = system: EKVX NSCLC
# CAKI-1 renal = system: CAKI-1 renal
# SF-539 CNS = system: SF-539 CNS
# HCT-15 colon = system: HCT-15 colon
# BT-549 breast = system: BT-549 breast
# MDA-MB-435 = system: MDA-MB-435
# PC-3 prostate = system: PC-3 prostate
# MOLT-4 leukemia = system: MOLT-4 leukemia
# IGROV1 ovarian = system: IGROV1 ovarian
# OVCAR-3 ovarian = system: OVCAR-3 ovarian
# SF-268 CNS = system: SF-268 CNS
Structure (SMILES),TGI (HCC-2998 colon) [µM],TGI (RXF 393 renal) [µM],TGI (SN12C renal) [µM],TGI (OVCAR-8 ovarian) [µM],TGI (NCI-H460 lung) [µM],TGI (EKVX NSCLC) [µM],TGI (CAKI-1 renal) [µM],TGI (SF-539 CNS) [µM],TGI (HCT-15 colon) [µM],TGI (BT-549 breast) [µM],TGI (MDA-MB-435) [µM],TGI (PC-3 prostate) [µM],TGI (MOLT-4 leukemia) [µM],TGI (IGROV1 ovarian) [µM],TGI (OVCAR-3 ovarian) [µM],TGI (SF-268 CNS) [µM]
CNC(=O)N(CCC#N)CCN(CCN(C(=O)NC)c1ccccc1)C(=O)NC,> 100,> 100,> 100,> 100,> 100,> 100,> 100,> 100,> 100,> 100,> 100,> 100,> 100,> 100,> 100,–
O=C(O)/C(=C\c1ccccc1)Cc1ccccc1,> 100,> 100,> 100,> 100,> 100,> 100,> 100,> 100,> 100,> 100,> 100,> 100,> 100,> 100,> 100,> 100
COC(=O)[C@]1(c2cc3ccccc3n2S(=O)(=O)c2ccccc2)CC2CCC1NC2 (stereo partly drawn),21.6,25.7,29.4,32.3,26.9,30.1,29.4,32.2,40.5,32.9,27.4,24.5,–,33.7,33.1,40
Cc1cc(S(=O)(=O)Nc2nc(N)n(C)n2)c(S)cc1Cl,> 10,> 10,> 10,> 10,> 10,> 10,> 10,> 10,> 10,> 10,> 10,> 10,> 10,> 10,> 10,> 10
COc1cc(/C=C2\NC(=O)N(/C=C3\C(=O)Oc4ccccc4C3=O)C2=O)ccc1O,> 100,99.2,> 100,> 100,> 100,> 100,> 100,> 100,> 100,> 100,> 100,> 100,> 100,> 100,–,> 100
O=S(=O)(Nc1ccccc1S(=O)(=O)c1ccccc1)c1ccccc1,> 100,> 100,> 100,> 100,–,97,> 100,> 100,> 100,> 100,> 100,> 100,> 100,> 100,> 100,> 100
Cc1cccc(C)c1NC(=S)/N=C/C1=C(O)c2ccccc2C1=O,> 100,> 100,> 100,> 100,> 100,> 94.4,68.9,> 59.9,> 100,> 28.8,> 80.1,> 100,–,> 79.4,> 100,> 100
O=C(c1nsc(Cl)c1Cl)N1CCCCC1,> 100,> 100,> 100,> 100,–,> 100,> 100,> 100,> 100,> 100,> 100,> 100,> 100,> 100,> 100,> 100
Cc1c(-c2ccccc2)n(C)c2cn[nH]c(=O)c12,85.8,–,–,> 100,> 100,> 100,> 100,> 100,> 100,> 100,> 100,51.3,> 100,> 100,47.7,> 100
C=CCC1(O)c2cccc(O)c2C(=O)c2c(O)cccc21,43.7,53.4,–,> 100,> 100,92.2,> 100,> 100,47.9,60.7,> 100,88,> 100,> 100,> 100,> 100
CC(=O)OCCn1c(Cc2ccc([N+](=O)[O-])cc2)nn(C(C)=O)c1=O,> 100,–,> 100,> 100,> 100,> 100,> 100,> 100,> 100,> 100,> 100,> 100,> 100,> 100,> 100,> 100
Cc1cc2c3c(ccc4ncc(c43)CN2c2ccc(NS(C)(=O)=O)cc2)[nH]1,> 100,> 100,–,> 100,> 100,> 100,64.5,–,> 100,> 100,> 100,> 100,> 100,> 100,81.5,51.5
CCCNc1[nH]c(C(C)=O)c(N)c1C(=S)Nc1ccccc1,> 100,65.3,> 100,> 100,> 100,> 100,> 100,65.4,> 100,68.4,55.9,> 100,> 100,> 100,> 100,86.8
COc1cc2cc(C(=O)N3CC(COS(C)(=O)=O)c4c3cc([N+](=O)[O-])c3ccccc43)[nH]c2c(OC)c1OC (stereo not drawn),> 31.6,> 100,> 100,> 31.6,> 31,> 31.6,> 50,> 31.6,> 31.6,> 31.6,> 31.6,> 31.6,–,> 31.6,> 31.6,> 31.6
CC[n+]1[b-](C(C)(C)C)n(/N=C(\C)C(C)(C)C)[b-](C(C)(C)C)[n+]1CC,> 100,> 100,> 100,> 100,> 100,> 100,> 100,> 100,> 100,> 100,> 100,> 100,> 100,> 100,> 100,> 100
Nc1nc(Cl)c2ncn(Cc3ccccc3CCl)c2n1,6.57,–,5.62,19.6,36.8,31.1,20.4,38.2,7.45,22.9,27,68.1,> 100,> 100,10.9,14.5

Structure (SMILES),TGI (HCC-2998 colon) [µM],TGI (RXF 393 renal) [µM],TGI (SN12C renal) [µM],TGI (OVCAR-8 ovarian) [µM],TGI (NCI-H460 lung) [µM],TGI (EKVX NSCLC) [µM],TGI (CAKI-1 renal) [µM],TGI (SF-539 CNS) [µM],TGI (HCT-15 colon) [µM],TGI (BT-549 breast) [µM],TGI (MDA-MB-435) [µM],TGI (PC-3 prostate) [µM],TGI (MOLT-4 leukemia) [µM],TGI (IGROV1 ovarian) [µM],TGI (OVCAR-3 ovarian) [µM],TGI (SF-268 CNS) [µM]
Nc1nc(Nc2ccc(Cl)cc2)sc1C(=O)c1cc2ccccc2oc1=O,> 100,> 100,> 100,–,> 100,–,–,> 100,> 100,> 100,> 100,> 100,–,> 100,38.6,> 100
COc1ccc(OC)c(C2CCc3cnc4nc(N)nc(N)c4c3C2)c1 (stereo not drawn),> 100,83.3,> 100,> 100,> 100,> 100,> 100,–,> 100,> 100,> 100,> 100,> 100,> 100,> 100,> 100
CC[C@H](CCCCC1CC[C@@H]2CC(=O)C[C@H]12)OC (stereo partly drawn),> 100,> 100,> 100,> 100,> 100,> 100,> 100,> 100,> 100,> 100,> 100,> 100,> 100,> 100,> 100,> 100
O=[N+]([O-])c1cc(Cl)ccc1S(=O)(=O)c1ccccc1,> 100,> 100,> 100,> 100,> 100,> 100,> 100,> 100,> 100,> 100,> 100,> 100,> 100,> 100,> 100,> 100
CCCCNc1nc(SC)nc2nc[nH]c12,> 100,> 100,> 100,> 100,> 100,> 100,> 100,> 100,> 100,> 100,> 100,> 100,> 100,> 100,> 100,> 100
COc1cc2c[n+](C)c3c4ccccc4ccc3c2cc1OC,42.4,32.1,7.95,16.8,> 51.2,> 48.2,> 100,23.7,> 100,16.7,15.6,> 43.2,20.6,–,34.9,6.77
COc1cc2c(cc1OC)-c1cc3ccccc3c(=O)n1CCC2,> 64.3,57.5,78.9,61.2,11.2,> 100,44.9,26,27.5,89.2,> 53.7,62.7,10.4,66,60.4,> 100
C=CCCCC1(C)CCCCNC1=O (stereo not drawn),> 10,> 10,> 10,> 10,> 10,> 10,> 10,> 10,> 10,> 10,> 10,> 10,> 10,> 10,> 10,> 10
COc1cc(Cn2c3c(c4cc(O)ccc42)C(=O)c2ccccc2C3=O)cc(OC)c1,37.3,35.5,42.2,19.1,32.9,48.2,55.5,7.38,> 100,4.86,> 100,11.8,90.9,13,77.7,15.5
CN1c2ccccc2C2c3c(O)ccc(O)c3C=C([N+](=O)[O-])C21 (stereo not drawn),2.8,15.5,–,–,6.02,7.63,5.16,4.45,6.41,13.6,0.366,4.79,> 27.4,5.87,–,6.54
Nc1nc(Cl)cc(Nc2ccc3c(c2)CCC3)n1,> 100,–,> 100,> 100,> 100,> 100,> 100,> 100,> 100,> 100,> 100,> 100,84.7,> 100,> 100,> 100
Cn1ncc2c(NCCc3ccccc3)nc(Cl)nc21,40.3,> 100,> 100,> 100,31.1,23.3,91.4,–,> 100,78.4,44.9,71.8,39.9,> 100,> 100,> 100
Cc1ccc(C2SC(N)=Nc3c2c(C)nn3C(=O)c2ccncc2)cc1 (stereo not drawn),> 10,> 10,> 10,> 10,> 10,–,> 10,> 10,> 10,> 10,> 10,> 10,> 10,> 10,> 10,> 10
CCOC(=O)c1sc2nc(SC)nc(Nc3ccc(OC)c(OC)c3)c2c1N,> 100,8.97,> 100,> 100,> 100,> 100,> 100,> 100,> 100,> 100,> 100,> 100,–,> 100,> 100,80.9
CC(C)(C)OC(=O)C1/C(=C/CO)CN1C(=O)OC(C)(C)C (stereo not drawn),> 100,–,> 100,> 100,> 100,> 100,> 100,> 100,> 100,> 100,> 100,> 100,> 100,> 100,> 100,> 100
